Experimental data: patent publication US12264159B2, “Functionalized heterocycles as antiviral agents” (Enanta Pharmaceuticals, Inc., priority 2018, dated 2025)

Columns and labels:
[1] = tested on: HBV in 2.2.15 cells; experiment: 2.2.15 cells: viral product in cell lysates quantified via quantitative real time PCR; type: cell-based, hepatitis B virus (HBV); details: Hepatitis B virus, 120 h, day 5 post treatment, 50% reduction of viral product vs no drug controls, readout (qPCR, HBsAg or HBeAg) not specified for the column
Summary of the method: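 2.2.15 cells (35,000/well, DMEM/F12, 10% FBS, G418) were treated with 5-fold serial compound dilutions, 0.5% DMSO final. After 5 days, lysates were quantified by qPCR, or supernatant HBsAg/HBeAg by ELISA; EC50 is the concentration giving 50% reduction versus no-drug controls.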

[2] = Compound induced cellular toxicity in HepG2 cells, ATPlite 1Step; type: cell-based; details: human, three days exposure, 50% reduction of total ATP vs no drug controls
Description: At day 3, post seeding cells are treated with ATPlite 1Step according to the manufacturer's instructions.

Question: What does the source list for `CC(C)(C)[C@@H]1Cn2nc(-c3cccc4c3OC(F)(F)O4)c(Cl)c2-c2cc(=O)c(C(=O)O)cn21` [Example 88, (R)-6-(tert-butyl)-1-chloro-2-(2,2-difluorobenzo[d][1,3]dioxol-4-yl)-10-oxo-5,6-dihydro-10H-pyrazolo[1,5-a]pyrido[2,1-c]pyrazine-9-carboxylic acid]?
Answer: EC50 [1]: < 0.1 µM; CC50 at 3 days [2]: > 25 µM

Question: With `CC(C)(C)[C@@H]1Cn2nc(-c3cccc4nonc34)cc2-c2cc(=O)c(C(=O)O)cn21` [Example 58, (R)-2-(benzo[c][1,2,5]oxadiazol-4-yl)-6-(tert-butyl)-10-oxo-5,6-dihydro-10H-pyrazolo[1,5-a]pyrido[2,2-c]pyrazine-12-carboxylic acid] as the molecule, how does the EC50 [1] read?
Answer: < 0.1 µM

Question: And the CC50 at 3 days [2]?
Answer: > 25 µM

Question: Which EC50 [1] does the source give for `CC(C)(C)[C@@H]1Cn2nc(-c3ccccc3O)cc2-c2cc(=O)c(C(=O)O)cn21` [Example 46, (R)-6-(tert-butyl)-2-(2-hydroxyphenyl)-10-oxo-5,6-dihydro-10H-pyrazolo[1,5-a]pyrido[2,2-c]pyrazine-12-carboxylic acid] here?
Answer: < 0.1 µM

Question: What about the CC50 at 3 days [2] of the same molecule?
Answer: > 25 µM

Question: With `CC(C)(C)[C@@H]1Cn2nc(C3CC3)c(-c3ccccc3F)c2-c2cc(=O)c(-c3ncn[nH]3)cn21` [Example 198, (R)-6-(tert-butyl)-2-cyclopropyl-1-(2-fluorophenyl)-9-(1H-1,2,4-triazol-5-yl)-5,6-dihydro-10H-pyrazolo[1,5-a]pyrido[2,1-c]pyrazin-10-one] as the molecule, how does the EC50 [1] read?
Answer: < 0.1 µM

Question: What about the CC50 at 3 days [2] of the same molecule?
Answer: > 25 µM

Question: What does the source list for `CC(C)(C)[C@@H]1Cn2nc(-c3ccccc3OC3CCCC3)cc2-c2cc(=O)c(C(=O)O)cn21` [Example 76, (R)-6-(tert-butyl)-2-(2-(cyclopentyloxy)phenyl)-10-oxo-5,6-dihydro-10H-pyrazolo[1,5-a]pyrido[2,2-c]pyrazine-12-carboxylic acid]?
Answer: EC50 [1]: < 0.1 µM; CC50 at 3 days [2]: > 25 µM

Question: For `CC(C)[C@@H]1Cn2nc(-c3ccc(F)cc3)c(-c3ccc(F)cc3)c2-c2c(F)c(=O)c(C(=O)O)cn21` [Example 187, (R)-11-fluoro-1,2-bis(4-fluorophenyl)-6-isopropyl-10-oxo-5,6-dihydro-10H-pyrazolo[1,5-a]pyrido[2,1-c]pyrazine-9-carboxylic acid], which EC50 [1] is on record?
Answer: < 0.1 µM

Question: And the CC50 at 3 days [2]?
Answer: 10 to 25 µM

Question: Which EC50 [1] does the source give for `CC(C)(C)[C@@H]1Cn2ncc(-c3ccccc3OC(F)(F)F)c2-c2cc(=O)c(C(=O)O)cn21` [Example 115, (R)-6-(tert-butyl)-10-oxo-1-(2-(trifluoromethoxy)phenyl)-5,6-dihydro-10H-pyrazolo[1,5-a]pyrido[2,1-c]pyrazine-9-carboxylic acid] here?
Answer: < 0.1 µM

Question: And the CC50 at 3 days [2]?
Answer: > 25 µM

Question: Which EC50 [1] does the source give for `CC(C)(C)[C@@H]1Cn2ncc(-c3cccc(OC(F)(F)F)c3)c2-c2cc(=O)c(C(=O)O)cn21` [Example 116, (R)-6-(tert-butyl)-10-oxo-1-(3-(trifluoromethoxy)phenyl)-5,6-dihydro-10H-pyrazolo[1,5-a]pyrido[2,1-c]pyrazine-9-carboxylic acid] here?
Answer: < 0.1 µM

Question: What about the CC50 at 3 days [2] of the same molecule?
Answer: > 25 µM

Question: With `CC(C)(C)[C@@H]1Cn2nc(C3CC3)c(-c3cccc4c3OC(F)(F)O4)c2-c2cc(=O)c(C(=O)O)cn21` [Example 150, (R)-6-(tert-butyl)-2-cyclopropyl-1-(2,2-difluorobenzo[d][1,3]dioxol-4-yl)-10-oxo-5,6-dihydro-10H-pyrazolo[1,5-a]pyrido[2,1-c]pyrazine-9-carboxylic acid] as the molecule, how does the EC50 [1] read?
Answer: < 0.1 µM

Question: What about the CC50 at 3 days [2] of the same molecule?
Answer: > 25 µM

Question: Which EC50 [1] does the source give for `CCCCOc1ccccc1-c1cc2n(n1)C[C@@H](C(C)(C)C)n1cc(C(=O)O)c(=O)cc1-2` [Example 78, (R)-2-(2-butoxyphenyl)-6-(tert-butyl)-10-oxo-5,6-dihydro-10H-pyrazolo[1,5-a]pyrido[2,2-c]pyrazine-12-carboxylic acid] here?
Answer: < 0.1 µM

Question: What about the CC50 at 3 days [2] of the same molecule?
Answer: > 25 µM

Question: For `COc1cccc(F)c1-c1cc2n(n1)C[C@@H](C(C)(C)C)n1cc(C(=O)O)c(=O)cc1-2` [Example 50, (R)-6-(tert-butyl)-2-(2-fluoro-6-methoxyphenyl)-10-oxo-5,6-dihydro-10H-pyrazolo[1,5-a]pyrido[2,2-c]pyrazine-12-carboxylic acid], which EC50 [1] is on record?
Answer: 0.2 to 1 µM

Question: What about the CC50 at 3 days [2] of the same molecule?
Answer: > 25 µM

Question: Which EC50 [1] does the source give for `CC(C)(C)[C@@H]1Cn2nc(C3CC3)c(-c3cccc4scnc34)c2-c2cc(=O)c(C(=O)O)cn21` [Example 164, (R)-1-(benzo[d]thiazol-4-yl)-6-(tert-butyl)-2-cyclopropyl-10-oxo-5,6-dihydro-10H-pyrazolo[1,5-a]pyrido[2,1-c]pyrazine-9-carboxylic acid] here?
Answer: < 0.1 µM

Question: What about the CC50 at 3 days [2] of the same molecule?
Answer: > 25 µM

Question: What does the source list for `CC(C)(C)[C@@H]1Cn2nc(-c3cccc4cn[nH]c34)cc2-c2cc(=O)c(C(=O)O)cn21` [Example 67, (R)-6-(tert-butyl)-2-(1H-indazol-7-yl)-10-oxo-5,6-dihydro-10H-pyrazolo[1,5-a]pyrido[2,2-c]pyrazine-12-carboxylic acid]?
Answer: EC50 [1]: < 0.1 µM; CC50 at 3 days [2]: > 25 µM

Question: With `CC(C)(C)[C@@H]1Cn2nc(-c3cc(F)c(F)cc3O)cc2-c2cc(=O)c(C(=O)O)cn21` [Example 66, (R)-6-(tert-butyl)-2-(4,5-difluoro-2-hydroxyphenyl)-10-oxo-5,6-dihydro-10H-pyrazolo[1,5-a]pyrido[2,2-c]pyrazine-12-carboxylic acid] as the molecule, how does the EC50 [1] read?
Answer: < 0.1 µM

Question: What about the CC50 at 3 days [2] of the same molecule?
Answer: > 25 µM
